21 molecules from patent US20220071971A1, “MACROCYCLIC COMPOUNDS AND THEIR USE IN THE TREATMENT OF DISEASE” (NOVARTIS AG, priority 2018, published 2022) can be followed below.

Molecules are shown by their SMILES.

The target in the assay is T1, delF508-CFTR (Homo sapiens, UniProt P13569, DEL508-508).
T1 construct: expressed in transfected cells
The assay can be described thus: Measurement of delF508-CFTR-HRP surface expression in CFBE41o- cells. The following applies: for Emax: CFBE41o-, read-out: DelF508-CFTR-HRP Amax %; for EC50: HRP-tagged delF508-CFTR surface expression, CFBE41o- cells, 24 h with compound, 10-point curve, highest concentration 10 μM. It is filed as cell-based. From the text:
Measurement of deIF508-CFTR-HRP Surface Expression in CFBE41o-Cells
This assay quantifies the cell surface expressions of the mutant CFTR channel using an extracellular HRP tag.
A cellular assay was developed to measure surface expression of horseradish peroxidase (HRP) tagged delF508-CFTR in the human bronchial epithelial immortalized CFBE41o-cell line (Phuan, P. W., et al, (2014) Molecular Pharmacology 86:42-51). Specifically, the HRP sequence was inserted into the fourth extracellular loop of delF508-CFTR and stably expressed in CFBE41o-cells. Cells were seeded in 384 well plate at a density of 5000 cells/well and incubated at 37° C. for 12 to 24 hours in medium (Gibco MEM #11095, 10% FBS, 10 mM HEPES, […], 200 μg/mL G418, 3 μg/mL Puromycin). The delF508-CFTR-HRP expression was induced with 500 ng/mL doxycycline (Sigma D-9891, dissolved in H2O and sterile filtered) in medium and the cells were incubated at 37° C. for 48 h. Old medium was removed and fresh medium was added containing 500 ng/mL doxycycline and unknown test compound at required test concentration in DMSO, not exceeding 0.5% final DMSO concentration. The highest concentration tested was 10 μM with a 10-point concentration response curve using a 3-fold dilution. After addition of compounds, the cells were incubated for 24 h at 37° C. On the final day, cells were washed four times in PBS containing 1 mM MgCl2 and 0.1 mM CaCl2. HRP-Substrate (SuperSignal ELISA Pico, Fisher #37069) 20 μl/well was added and the luminescence signal was determined (Viewlux, Perkin Elmer). Light was emitted upon addition of exogenous HRP-Substrate only when delF508-CFTR-HRP reached the cell surface and the HRP tag was accessible to the HRP-Substrate (note: HRP-Substrate cannot cross the lipid bilayer to reach delF508-CFTR-HRP misfolded within the cell).
The median activity for the lowest concentration of the compounds on each assay plate was calculated and this value was used to normalize the signal for each well on the respective plate. Three replicates at each concentrations for every compound were run to determine one EC50. The median value was determined and used to calculate compound activities as described below. Effective half maximal values (EC50) were calculated for each compound by performing logistic regression on measured dose-response data points using the equation: […]
where “Y” is the observed activity, “Bottom” is the lowest observed value, “Top” is the highest observed value, and the “Hill coefficient” gives the largest absolute value of the slope. The curve fitting is carried out by a curve fitting program implemented at GNF using Matlab (Mathworks).
The dose response curves also were used to calculate Fold Change (FC) using the equation: […]
Compound efficacy relative to the reference compound 3-(6-(1-(2,2-difluorobenzo[d][1,3]dioxol-5-yl)cyclopropane-1-carboxamido)-3-methylpyridin-2-yl)benzoic acid was determined using the following formula: […]

[1] abbreviates: efficacy relative to reference compound 3-(6-(1-(2,2-difluorobenzo[d][1,3]dioxol-5-yl)cyclopropane-1-carboxamido)-3-methylpyridin-2-yl)benzoic acid.

T1 sequence (P13569 with tags, fused parts or gaps DEL508-508): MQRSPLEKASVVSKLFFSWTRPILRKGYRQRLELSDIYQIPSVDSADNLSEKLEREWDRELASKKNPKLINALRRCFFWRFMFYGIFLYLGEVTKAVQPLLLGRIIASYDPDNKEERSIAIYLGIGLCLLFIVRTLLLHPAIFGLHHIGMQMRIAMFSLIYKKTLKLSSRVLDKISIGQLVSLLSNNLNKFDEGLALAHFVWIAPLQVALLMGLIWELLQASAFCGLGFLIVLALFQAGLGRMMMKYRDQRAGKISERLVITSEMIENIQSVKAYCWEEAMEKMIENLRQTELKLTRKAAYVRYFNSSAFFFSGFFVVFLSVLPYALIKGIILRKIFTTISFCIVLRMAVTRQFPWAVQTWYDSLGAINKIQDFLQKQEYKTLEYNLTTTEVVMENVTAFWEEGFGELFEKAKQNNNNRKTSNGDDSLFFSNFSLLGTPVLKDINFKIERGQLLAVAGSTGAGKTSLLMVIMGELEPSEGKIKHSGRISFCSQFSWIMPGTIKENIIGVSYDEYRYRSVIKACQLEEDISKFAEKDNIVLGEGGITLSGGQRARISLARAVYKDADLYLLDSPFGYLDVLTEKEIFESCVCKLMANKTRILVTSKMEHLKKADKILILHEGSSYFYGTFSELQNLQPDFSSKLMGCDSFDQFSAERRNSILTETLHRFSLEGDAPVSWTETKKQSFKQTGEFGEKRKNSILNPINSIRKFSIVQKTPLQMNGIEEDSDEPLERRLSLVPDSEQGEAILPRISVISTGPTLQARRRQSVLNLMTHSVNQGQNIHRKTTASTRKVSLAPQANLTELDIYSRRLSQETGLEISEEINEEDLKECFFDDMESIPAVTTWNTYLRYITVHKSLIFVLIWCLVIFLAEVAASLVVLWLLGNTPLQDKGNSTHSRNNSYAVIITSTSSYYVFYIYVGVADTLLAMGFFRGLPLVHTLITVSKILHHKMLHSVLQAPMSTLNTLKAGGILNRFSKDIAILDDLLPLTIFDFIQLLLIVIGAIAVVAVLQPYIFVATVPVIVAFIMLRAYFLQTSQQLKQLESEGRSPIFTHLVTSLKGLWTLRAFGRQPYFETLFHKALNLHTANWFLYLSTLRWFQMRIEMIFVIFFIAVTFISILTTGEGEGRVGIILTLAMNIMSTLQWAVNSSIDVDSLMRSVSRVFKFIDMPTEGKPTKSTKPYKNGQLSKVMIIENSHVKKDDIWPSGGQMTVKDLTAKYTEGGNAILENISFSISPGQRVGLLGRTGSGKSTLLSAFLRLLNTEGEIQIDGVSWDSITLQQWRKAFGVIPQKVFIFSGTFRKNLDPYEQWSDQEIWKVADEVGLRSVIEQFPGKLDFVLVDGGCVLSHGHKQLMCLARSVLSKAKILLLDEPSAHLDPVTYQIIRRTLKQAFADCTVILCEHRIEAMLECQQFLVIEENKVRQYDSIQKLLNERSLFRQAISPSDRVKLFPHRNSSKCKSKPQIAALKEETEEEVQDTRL

Regarding `O=S1(=O)Nc2ccc(C(F)(F)F)c(n2)-c2ccccc2CCCCCN(CCOCCCO)c2cccc1n2` [Compound 14, 6-(2-(3-hydroxypropoxy)ethyl)-2^3-(trifluoromethyl)-4-thia-3,6-diaza-2,5(2,6)-dipyridina-1(1,2)-benzenacycloundecaphane 4,4-dioxide], the EC50 – broadly, the midpoint of the concentration-response curve – came to 334 nM. Further, the Emax under setting [1] was 489%. Turning to `CC1(C)OCC(CN2CCCCCc3ccccc3-c3nc(ccc3C(F)(F)F)NS(=O)(=O)c3cccc2n3)O1` (stereo not drawn) [Compound 37, 6-((2,2-dimethyl-1,3-dioxolan-4-yl)methyl)-2^3-(trifluoromethyl)-4-thia-3,6-diaza-2,5(2,6)-dipyridina-1(1,2)-benzenacycloundecaphane 4,4-dioxide], the EC50 is 385 nM. Besides, the Emax under setting [1] was found to be 651%.

With `O=C(O)CCCCN1CCCCCCCc2ccccc2-c2nc(ccc2C(F)(F)F)NS(=O)(=O)c2cccc1n2` [Compound 101, 5-(4,4-dioxido-2^3-(trifluoromethyl)-4-thia-3,6-diaza-2,5(2,6)-dipyridina-1(1,2)-benzenacyclotridecaphane-6-yl)pentanoic acid], the EC50 was determined as 84 nM. Take `O=S1(=O)Nc2ccc(C(F)(F)F)c(n2)-c2ccccc2CCCCCN(CC(O)CO)c2cccc1n2` (stereo not drawn) [Compound 128, 6-(2,3-dihydroxypropyl)-2^3-(trifluoromethyl)-4-thia-3,6-diaza-2,5(2,6)-dipyridina-1(1,2)-benzenacycloundecaphane 4,4-dioxide]: the EC50 was 275 nM. The Emax under setting [1] is 435%.

With `CCOC(=O)CN1CCCCOc2ccccc2-c2nc(ccc2C(F)(F)F)NS(=O)(=O)c2cccc1n2` [Compound 3, ethyl 2-(4,4-dioxido-2^3-(trifluoromethyl)-11-oxa-4-thia-3,6-diaza-2,5(2,6)-dipyridina-1(1,2)-benzenacycloundecaphane-6-yl)acetate], the EC50 is 335 nM. The Emax under setting [1] was 361%. In the case of `COc1ccc2nc1-c1ccccc1CCCCCN(CCCC(=O)O)c1cccc(n1)S(=O)(=O)N2` [Compound 83, 4-(2^3-methoxy-4,4-dioxido-4-thia-3,6-diaza-2,5(2,6)-dipyridina-1(1,2)-benzenacycloundecaphane-6-yl)butanoic acid], the EC50 worked out at 2430 nM. In addition, under setting [1], the “DelF508-CFTR-HRP Amax %” value is recorded as 163.8%. In the case of `O=S1(=O)Nc2ccc(C(F)(F)F)c(n2)-c2cc(F)ccc2OCCCCN(CCCO)c2cccc1n2` [Compound 22, 1^5-fluoro-6-(3-hydroxypropyl)-2^3-(trifluoromethyl)-11-oxa-4-thia-3,6-diaza-2,5(2,6)-dipyridina-1(1,2)-benzenacycloundecaphane 4,4-dioxide], the half-maximal effective concentration (EC50) was determined as 603 nM. Under setting [1], the Emax is 666%. For the molecule `O=C(O)C1(CN2CCOCCCc3ccccc3-c3nc(ccc3C(F)(F)F)NS(=O)(=O)c3cccc2n3)CC1` [Compound 95, 1-((4,4-dioxido-2^3-(trifluoromethyl)-9-oxa-4-thia-3,6-diaza-2,5(2,6)-dipyridina-1(1,2)-benzenacyclododecaphane-6-yl)methyl)cyclopropane-1-carboxylic acid], the EC50 was determined as 1320 nM. Regarding `O=S1(=O)Nc2ccc(C(F)(F)F)c(n2)-c2ccccc2CCCCNc2cccc1n2` [Compound 115, 2^3-(trifluoromethyl)-4-thia-3,6-diaza-2,5(2,6)-dipyridina-1(1,2)-benzenacyclodecaphane 4,4-dioxide], the EC50 was 456 nM. Also, the Emax under setting [1] stood at 430%. For the molecule `O=C(O)CCN1CCCCCCCc2ccccc2-c2nc(ccc2C(F)(F)F)NS(=O)(=O)c2cccc1n2` [Compound 62, 3-(4,4-dioxido-2^3-(trifluoromethyl)-4-thia-3,6-diaza-2,5(2,6)-dipyridina-1(1,2)-benzenacyclotridecaphane-6-yl)propanoic acid], the EC50 came out at 403 nM. On to `O=S1(=O)Nc2ccc(C(F)(F)F)c(n2)-c2ccccc2CCCCN(CCO)c2cccc1n2` [Compound 116, 6-(2-hydroxyethyl)-2^3-(trifluoromethyl)-4-thia-3,6-diaza-2,5(2,6)-dipyridina-1(1,2)-benzenacyclodecaphane 4,4-dioxide], for which the EC50 is 445 nM. Moreover, the Emax under setting [1] was 737%. The matching figures for `O=C(O)CNCCN1CCCCCc2ccccc2-c2nc(ccc2C(F)(F)F)NS(=O)(=O)c2cccc1n2` [Compound 127, (2-(4,4-dioxido-2^3-(trifluoromethyl)-4-thia-3,6-diaza-2,5(2,6)-dipyridina-1(1,2)-benzenacycloundecaphane-6-yl)ethyl)glycine]: 3630 nM and 93.6%. For `Cc1ccc2nc1-c1ccccc1CCCCCN(CCCCO)c1cccc(n1)S(=O)(=O)N2` [Compound 19, 6-(4-hydroxybutyl)-2^3-methyl-4-thia-3,6-diaza-2,5(2,6)-dipyridina-1(1,2)-benzenacycloundecaphane 4,4-dioxide], the EC50 was found to be 1620 nM. Further, under setting [1], the Emax stood at 490%.

In the case of `O=S1(=O)Nc2ccc(Cl)c(n2)-c2ccccc2CCCCCCOc2cccc1n2` [Compound 111, 2^3-chloro-6-oxa-4-thia-3-aza-2,5(2,6)-dipyridina-1(1,2)-benzenacyclododecaphane 4,4-dioxide], the EC50 stood at 1060 nM. On to `O=C(O)CCCN1CCCCCCCCCc2ccccc2-c2nc(ccc2C(F)(F)F)NS(=O)(=O)c2cccc1n2` [Compound 66, 4-(4,4-dioxido-2^3-(trifluoromethyl)-4-thia-3,6-diaza-2,5(2,6)-dipyridina-1(1,2)-benzenacyclopentadecaphane-6-yl)butanoic acid], for which the EC50 stood at 224 nM.

Regarding `O=S1(=O)Nc2ccc(C(F)(F)F)c(n2)-c2ccccc2CCCCCCCCCN(CCCCO)c2cccc1n2` [Compound 42, 6-(4-hydroxybutyl)-2^3-(trifluoromethyl)-4-thia-3,6-diaza-2,5(2,6)-dipyridina-1(1,2)-benzenacyclopentadecaphane 4,4-dioxide], the EC50 is 219 nM. Consider `COc1ccc2nc1-c1ccccc1CCCCCN(CCCCO)c1cccc(n1)S(=O)(=O)N2` [Compound 17, 6-(4-hydroxybutyl)-2^3-methoxy-4-thia-3,6-diaza-2,5(2,6)-dipyridina-1(1,2)-benzenacycloundecaphane 4,4-dioxide], for which the EC50 amounted to 2340 nM. Under setting [1], the Emax was 347%. The matching figures for `O=C(O)C1(CN2CCCCCc3ccccc3-c3nc(ccc3C(F)(F)F)NS(=O)(=O)c3cccc2n3)CC1` [Compound 94, 1-((4,4-dioxido-2^3-(trifluoromethyl)-4-thia-3,6-diaza-2,5(2,6)-dipyridina-1(1,2)-benzenacycloundecaphane-6-yl)methyl)cyclopropane-1-carboxylic acid]: 566 nM and 737%.

For the molecule `O=S1(=O)Nc2ccc(C(F)(F)F)c(n2)-c2cc(F)ccc2OCCCCN(CCCCO)c2cccc1n2` [Compound 23, 1^5-fluoro-6-(4-hydroxybutyl)-2^3-(trifluoromethyl)-11-oxa-4-thia-3,6-diaza-2,5(2,6)-dipyridina-1(1,2)-benzenacycloundecaphane 4,4-dioxide], the EC50 came to 690 nM. In addition, the Emax under setting [1] came out at 592%. On to `O=S1(=O)Nc2ccc(Cl)c(n2)-c2ccccc2CCCCOc2cccc1n2` [Compound 112, 2^3-chloro-6-oxa-4-thia-3-aza-2,5(2,6)-dipyridina-1(1,2)-benzenacyclodecaphane 4,4-dioxide], for which the EC50 amounted to 2600 nM. Under setting [1], the Emax came out at 644%. For `O=S1(=O)Nc2ccc(C(F)(F)F)c(n2)-c2ccccc2CCCCCN(CCN2CCCC2)c2cccc1n2` [Compound 122, 6-(2-(pyrrolidin-1-yl)ethyl)-2^3-(trifluoromethyl)-4-thia-3,6-diaza-2,5(2,6)-dipyridina-1(1,2)-benzenacycloundecaphane 4,4-dioxide], in that order: 1220 nM and 226%.
